Measurements: ChEMBL document CHEMBL3046745, “Sensitivity of Cucumber Powdery Mildew Fungus (Sphaerotheca fuliginea) to Several Fungicides” (J Pestic Sci, 1991)

How the values were obtained:
Podosphaera fuliginea [1] = assay: Resistant ratio, ratio of EC50 for Podosphaera fuliginea isolate N-2 to EC50 for Podosphaera fuliginea isolate K-7; type: functional
Podosphaera fuliginea [2] = assay: Resistant ratio, ratio of EC50 for Podosphaera fuliginea isolate N-1 to EC50 for Podosphaera fuliginea isolate K-7; type: functional
Podosphaera fuliginea [3] = assay: Resistant ratio, ratio of EC50 for Podosphaera fuliginea isolate S-2 to EC50 for Podosphaera fuliginea isolate K-7; type: functional
Podosphaera fuliginea [4] = assay: Antifungal activity against Podosphaera fuliginea isolate K-7 in cucumber plants assessed as percentage of infected leaf area at 125 ppm treated 3 times at 7-day interval by foliar spray test; type: functional
Podosphaera fuliginea [5] = assay: Antifungal activity against Podosphaera fuliginea isolate N-2 in cucumber plants assessed as percentage of infected leaf area at 125 ppm treated 3 times at 7-day interval by foliar spray test; type: functional
Podosphaera fuliginea [6] = assay: Antifungal activity against Podosphaera fuliginea isolate N-1 in cucumber plants assessed as percentage of infected leaf area at 125 ppm treated 3 times at 7-day interval by foliar spray test; type: functional
Podosphaera fuliginea [7] = assay: Antifungal activity against Podosphaera fuliginea isolate S-2 in cucumber plants assessed as percentage of infected leaf area at 125 ppm treated 3 times at 7-day interval by foliar spray test; type: functional
Podosphaera fuliginea [8] = assay: Antifungal activity against Podosphaera fuliginea isolate K-7 in cucumber plants by leaf disc method; type: functional, organism-based
Podosphaera fuliginea [9] = assay: Antifungal activity against Podosphaera fuliginea isolate N-2 in cucumber plants by leaf disc method; type: functional, organism-based
Podosphaera fuliginea [10] = assay: Antifungal activity against Podosphaera fuliginea isolate N-1 in cucumber plants by leaf disc method; type: functional, organism-based
Podosphaera fuliginea [11] = assay: Antifungal activity against Podosphaera fuliginea isolate S-2 in cucumber plants by leaf disc method; type: functional, organism-based
Podosphaera fuliginea [12] = assay: Antifungal activity against Podosphaera fuliginea isolate K-7 in cucumber plants assessed as percentage of infected leaf area at 62.5 ppm treated 3 times at 7-day interval by foliar spray test; type: functional
Podosphaera fuliginea [13] = assay: Antifungal activity against Podosphaera fuliginea isolate N-2 in cucumber plants assessed as percentage of infected leaf area at 62.5 ppm treated 3 times at 7-day interval by foliar spray test; type: functional
Podosphaera fuliginea [14] = assay: Antifungal activity against Podosphaera fuliginea isolate N-1 in cucumber plants assessed as percentage of infected leaf area at 62.5 ppm treated 3 times at 7-day interval by foliar spray test; type: functional
Podosphaera fuliginea [15] = assay: Antifungal activity against Podosphaera fuliginea isolate S-2 in cucumber plants assessed as percentage of infected leaf area at 62.5 ppm treated 3 times at 7-day interval by foliar spray test; type: functional
Podosphaera fuliginea [16] = assay: Antifungal activity against Podosphaera fuliginea isolate K-7 in cucumber plants assessed as percentage of infected leaf area at 466.7 ppm treated 3 times at 7-day interval by foliar spray test; type: functional
Podosphaera fuliginea [17] = assay: Antifungal activity against Podosphaera fuliginea isolate N-2 in cucumber plants assessed as percentage of infected leaf area at 466.7 ppm treated 3 times at 7-day interval by foliar spray test; type: functional
Podosphaera fuliginea [18] = assay: Antifungal activity against Podosphaera fuliginea isolate N-1 in cucumber plants assessed as percentage of infected leaf area at 466.7 ppm treated 3 times at 7-day interval by foliar spray test; type: functional
Podosphaera fuliginea [19] = assay: Antifungal activity against Podosphaera fuliginea isolate S-2 in cucumber plants assessed as percentage of infected leaf area at 466.7 ppm treated 3 times at 7-day interval by foliar spray test; type: functional
Podosphaera fuliginea [20] = assay: Antifungal activity against Podosphaera fuliginea isolate K-7 in cucumber plants assessed as percentage of infected leaf area at 25 ppm treated 3 times at 7-day interval by foliar spray test; type: functional
Podosphaera fuliginea [21] = assay: Antifungal activity against Podosphaera fuliginea isolate N-2 in cucumber plants assessed as percentage of infected leaf area at 25 ppm treated 3 times at 7-day interval by foliar spray test; type: functional
Podosphaera fuliginea [22] = assay: Antifungal activity against Podosphaera fuliginea isolate N-1 in cucumber plants assessed as percentage of infected leaf area at 25 ppm treated 3 times at 7-day interval by foliar spray test; type: functional
Podosphaera fuliginea [23] = assay: Antifungal activity against Podosphaera fuliginea isolate S-2 in cucumber plants assessed as percentage of infected leaf area at 25 ppm treated 3 times at 7-day interval by foliar spray test; type: functional

SMILES | Ratio EC50 (Podosphaera fuliginea [1]) | Ratio EC50 (Podosphaera fuliginea [2]) | Ratio EC50 (Podosphaera fuliginea [3]) | EC50 (Podosphaera fuliginea [8]) | EC50 (Podosphaera fuliginea [9]) [ppm] | EC50 (Podosphaera fuliginea [10]) | EC50 (Podosphaera fuliginea [11]) | other results
Cc1ccc2nc3sc(=O)sc3nc2c1 [CHINOMETHIONAT] | 2.6 | 3.8 | 3.9 | 1.27 ppm | 3.35 | 4.83 ppm | 4.95 ppm | Activity (Podosphaera fuliginea [4]): 96.5%; Activity (Podosphaera fuliginea [5]): 94.9%; Activity (Podosphaera fuliginea [6]): 91.1%; Activity (Podosphaera fuliginea [7]): 91.3%
CCCCc1c(C)nc(N(C)C)nc1O [DIMETHIRIMOL] | 218.6 | 223.7 | 157.3 | 2.95 ×10⁻² ppm | 6.45 | 6.6 ppm | 4.64 ppm | Activity (Podosphaera fuliginea [12]): 98.8%; Activity (Podosphaera fuliginea [13]): 47.4%; Activity (Podosphaera fuliginea [14]): 49.4%; Activity (Podosphaera fuliginea [15]): 55.2%
COC(=O)NC(=S)Nc1ccccc1NC(=S)NC(=O)OC [THIOPHANATE METHYL] | 26531.4 | 25092.3 | 17675.3 | 2.71 ×10⁻² ppm | 719 | 680 ppm | 479 ppm | Activity (Podosphaera fuliginea [16]): 97.8%; Activity (Podosphaera fuliginea [17]): 11.9%; Activity (Podosphaera fuliginea [18]): 5.1%; Activity (Podosphaera fuliginea [19]): 0%
CC(C)(C)C(=O)C(Oc1ccc(Cl)cc1)n1cncn1 (centres undefined) [TRIADIMEFON] | 553.4 | 94.4 | 1.8 | 1.03 ×10⁻² ppm | 5.7 | 9.72 ×10⁻¹ ppm | 1.82 ×10⁻² ppm | Activity (Podosphaera fuliginea [20]): 98.8%; Activity (Podosphaera fuliginea [21]): 45.8%; Activity (Podosphaera fuliginea [22]): 76%; Activity (Podosphaera fuliginea [23]): 100%
